Experimental data as given in ChEMBL document CHEMBL5126592, “Design, synthesis and activity against drug-resistant bacteria evaluation of C-20, C-23 modified 5-O-mycaminosyltylonolide derivatives” (Eur J Med Chem, 2022).
≈ marks a conversion by molar mass, not a printed value. Calls of active or inactive are those of the source. No cut-off for these calls is given here.

Columns and labels:
[1] = Genotoxicity in Salmonella typhimurium TA98 assessed as number of revertants at 4x10^-5 mg/plate incubated for 72 hrs in presence of liver S9 fraction by Ames test (reference value: 43.67+/- 7.1); type: toxicity, subcellular; details: salmonella enterica subsp. enterica serovar typhimurium, s9, 72 h
[2] = Genotoxicity in Salmonella typhimurium TA98 assessed as number of revertants at 4x10^-5 mg/plate incubated for 72 hrs in absence of liver S9 fraction by Ames test (reference value: 57.33 +/- 3.06); type: toxicity; details: salmonella enterica subsp. enterica serovar typhimurium, s9, 72 h
[3] = Toxicity in Kunming mouse infected with Staphylococcus aureus ATCC 25923 assessed as reduction in neutrophils at 20 to 40 mg/kg, iv measured after 1 hr by hematoxylin and eosin staining based microscopic analysis; type: organism-based; details: in vivo, dose 20-40 mg/kg
[4] = Toxicity in Kunming mouse infected with Staphylococcus aureus ATCC 25923 assessed as intact lung tissue structure at 20 to 40 mg/kg, iv measured after 1 hr by hematoxylin and eosin staining based microscopic analysis; type: organism-based; details: in vivo, dose 20-40 mg/kg
[5] = Toxicity in Kunming mouse infected with Staphylococcus aureus ATCC 25923 assessed as appearance of pink and spongy lungs at 20 to 40 mg/kg, iv measured after 1 hr by hematoxylin and eosin staining based microscopic analysis; type: organism-based; details: in vivo, dose 20-40 mg/kg
[6] = tested on: Staphylococcus aureus; experiment: Antibacterial activity against Staphylococcus aureus ATCC 25923 infected in kunming mouse assessed as reduction in viable pathogens at 20 mg/kg, iv measured after 1 hr; type: functional, organism-based
[7] = tested on: Escherichia coli; experiment: Antibacterial activity against Escherichia coli ATCC 25922 incubated for 16 to 20 hrs using 10^4 CFU/ml bacterial inoculum by broth microdilution method; type: functional; details: time 16-20 hrs
[8] = Genotoxicity in Salmonella typhimurium TA98 assessed as number of revertants at 1x10^-3 mg/plate incubated for 72 hrs in absence of liver S9 fraction by Ames test (reference value: 57.33 +/- 3.06); type: toxicity; details: salmonella enterica subsp. enterica serovar typhimurium, s9, 72 h
[9] = tested on: Staphylococcus aureus; experiment: Antibacterial activity against Staphylococcus aureus incubated for 16 to 20 hrs by broth microdilution method; type: functional; details: time 16-20 hrs
[10] = tested on: Staphylococcus aureus; experiment: Antibacterial activity against Staphylococcus aureus ATCC 25923 incubated for 16 to 20 hrs by broth microdilution method; type: functional; details: time 16-20 hrs
[11] = tested on: Escherichia coli; experiment: Antibacterial activity against Escherichia coli ATCC 25922 incubated for 16 to 20 hrs by broth microdilution method; type: functional; details: time 16-20 hrs
[12] = tested on: Klebsiella pneumoniae; experiment: Antibacterial activity against Klebsiella pneumoniae ATCC 13883 incubated for 16 to 20 hrs by broth microdilution method; type: functional; details: time 16-20 hrs
[13] = tested on: Enterococcus faecium; experiment: Antibacterial activity against Enterococcus faecium incubated for 16 to 20 hrs by broth microdilution method; type: functional; details: time 16-20 hrs
[14] = tested on: Escherichia coli; experiment: Antibacterial activity against Escherichia coli incubated for 16 to 20 hrs by broth microdilution method; type: functional; details: time 16-20 hrs
[15] = tested on: Escherichia coli; experiment: Ratio of MBC to MIC for Escherichia coli ATCC 25922; type: functional
[16] = tested on: Escherichia coli; experiment: Antibacterial activity against Escherichia coli ATCC 25922 at pH 7.6 incubated for 16 to 20 hrs by broth microdilution method; type: functional; details: time 16-20 hrs
[17] = tested on: Escherichia coli; experiment: Antibacterial activity against Escherichia coli ATCC 25922 at pH 8 incubated for 16 to 20 hrs by broth microdilution method; type: functional; details: time 16-20 hrs
[18] = tested on: Staphylococcus aureus; experiment: Antibacterial activity against Staphylococcus aureus ATCC 29213 at pH 6.6 incubated for 16 to 20 hrs by broth microdilution method; type: functional; details: time 16-20 hrs
[19] = tested on: Staphylococcus aureus; experiment: Antibacterial activity against Staphylococcus aureus ATCC 29213 at pH 7.8 incubated for 16 to 20 hrs by broth microdilution method; type: functional; details: time 16-20 hrs
[20] = tested on: Staphylococcus aureus; experiment: Antibacterial activity against Staphylococcus aureus ATCC 29213 at pH 8.2 incubated for 16 to 20 hrs by broth microdilution method; type: functional; details: time 16-20 hrs
[21] = tested on: Staphylococcus aureus; experiment: Antibacterial activity against Staphylococcus aureus ATCC 29213 at pH 8.4 incubated for 16 to 20 hrs by broth microdilution method; type: functional; details: time 16-20 hrs
[22] = tested on: Escherichia coli; experiment: Antibacterial activity against Escherichia coli ATCC 25922 incubated for 16 to 20 hrs in presence of 25% foetal bovine serum by broth microdilution method; type: functional; details: time 16-20 hrs
[23] = tested on: Staphylococcus aureus; experiment: Antibacterial activity against Staphylococcus aureus ATCC 29213 at pH 8.6 incubated for 16 to 20 hrs in absence of foetal bovine serum by broth microdilution method; type: functional; details: time 16-20 hrs
[24] = tested on: Staphylococcus aureus; experiment: Antibacterial activity against Staphylococcus aureus ATCC 29213 at pH 8.6 incubated for 16 to 20 hrs in presence of 10% foetal bovine serum by broth microdilution method; type: functional; details: time 16-20 hrs
[25] = tested on: Staphylococcus aureus; experiment: Antibacterial activity against Staphylococcus aureus ATCC 29213 at pH 8.6 incubated for 16 to 20 hrs in presence of 25% foetal bovine serum by broth microdilution method; type: functional; details: time 16-20 hrs
[26] = Genotoxicity in Salmonella typhimurium TA100 assessed as number of revertants at 4x10^-5 mg/plate incubated for 72 hrs in absence of liver S9 fraction by Ames test (reference value: 221.67 +/- 15.57); type: toxicity; details: salmonella enterica subsp. enterica serovar typhimurium, s9, 72 h
[27] = Genotoxicity in Salmonella typhimurium TA100 assessed as number of revertants at 8x10^-6 mg/plate incubated for 72 hrs in absence of liver S9 fraction by Ames test (reference value: 221.67 +/- 15.57); type: toxicity; details: salmonella enterica subsp. enterica serovar typhimurium, s9, 72 h
[28] = Genotoxicity in Salmonella typhimurium TA100 assessed as number of revertants at 1x10^-3 mg/plate incubated for 72 hrs in presence of liver S9 fraction by Ames test (reference value: 204.33 +/- 8.14); type: toxicity, subcellular; details: salmonella enterica subsp. enterica serovar typhimurium, s9, 72 h
[29] = Genotoxicity in Salmonella typhimurium TA102 assessed as number of revertants at 4x10^-5 mg/plate incubated for 72 hrs in absence of liver S9 fraction by Ames test (reference value: 386.67 +/- 23.44); type: toxicity; details: salmonella enterica subsp. enterica serovar typhimurium, s9, 72 h
[30] = Genotoxicity in Salmonella typhimurium TA1535 assessed as number of revertants at 4x10^-5 mg/plate incubated for 72 hrs in absence of liver S9 fraction by Ames test (reference value: 14.33 +/- 0.58); type: toxicity; details: salmonella enterica subsp. enterica serovar typhimurium, s9, 72 h
[31] = Genotoxicity in Salmonella typhimurium TA1535 assessed as number of revertants at 8x10^-6 mg/plate incubated for 72 hrs in absence of liver S9 fraction by Ames test (reference value: 14.33 +/- 0.58); type: toxicity; details: salmonella enterica subsp. enterica serovar typhimurium, s9, 72 h
[32] = Genotoxicity in Salmonella typhimurium TA1535 assessed as number of revertants at 2x10^-4 mg/plate incubated for 72 hrs in presence of liver S9 fraction by Ames test (reference value: 15.33 +/- 2.52); type: toxicity, subcellular; details: salmonella enterica subsp. enterica serovar typhimurium, s9, 72 h
[33] = Genotoxicity in Salmonella typhimurium TA1535 assessed as number of revertants at 8x10^-6 mg/plate incubated for 72 hrs in presence of liver S9 fraction by Ames test (reference value: 15.33 +/- 2.52); type: toxicity, subcellular; details: salmonella enterica subsp. enterica serovar typhimurium, s9, 72 h
[34] = Genotoxicity in Salmonella typhimurium TA1537 assessed as number of revertants at 4x10^-5 mg/plate incubated for 72 hrs in absence of liver S9 fraction by Ames test (reference value: 22.67 +/- 2.52); type: toxicity; details: salmonella enterica subsp. enterica serovar typhimurium, s9, 72 h
[35] = Genotoxicity in Salmonella typhimurium TA1537 assessed as number of revertants at 1x10^-3 mg/plate incubated for 72 hrs in presence of liver S9 fraction by Ames test (reference value: 20 +/- 5); type: toxicity, subcellular; details: salmonella enterica subsp. enterica serovar typhimurium, s9, 72 h
[36] = Genotoxicity in Salmonella typhimurium TA1537 assessed as number of revertants at 2x10^-4 mg/plate incubated for 72 hrs in presence of liver S9 fraction by Ames test (reference value: 20 +/- 5); type: toxicity, subcellular; details: salmonella enterica subsp. enterica serovar typhimurium, s9, 72 h

CC[C@H]1OC(=O)C[C@@H](O)[C@H](C)[C@@H](O[C@@H]2O[C@H](C)[C@@H](O)[C@H](N(C)C)[C@H]2O)[C@@H](CCN(C)Cc2cn(-c3cnc4ccccc4c3)nn2)C[C@@H](C)C(=O)/C=C/C(C)=C/[C@@H]1CN1CCCCCC1
Activity [1]: 44.67 | Activity [2]: 62.33 | Activity [3]: Non-Toxic | Activity [4]: Non-Toxic | Activity [5]: Non-Toxic | Activity [6]: Active | MIC [7]: 0.25 µg/mL (≈ 0.277 µM) | Activity [8]: 60.33 | MIC [9]: 0.25 µg/mL (≈ 0.277 µM) | MIC [10]: 0.125 µg/mL (≈ 0.139 µM) | MIC [11]: 1 µg/mL (≈ 1.11 µM) | MIC [12]: 1 µg/mL (≈ 1.11 µM) | MIC [13]: 1 µg/mL (≈ 1.11 µM) | MIC [14]: 1 µg/mL (≈ 1.11 µM) | Ratio [15]: 2 | MIC [16]: 0.5 µg/mL (≈ 0.554 µM) | MIC [17]: 0.25 µg/mL (≈ 0.277 µM) | MIC [18]: 32 µg/mL (≈ 35.5 µM) | MIC [19]: ≤ 0.0625 µg/mL | MIC [20]: ≤ 0.0625 µg/mL | MIC [21]: ≤ 0.0625 µg/mL | MIC [22]: 4 µg/mL | MIC [23]: 0.25 µg/mL (≈ 0.277 µM) | MIC [24]: 0.5 µg/mL | MIC [25]: 1 µg/mL | Activity [26]: 201.67 | Activity [27]: 226 | Activity [28]: 174.67 | Activity [29]: 429.33 | Activity [30]: 6.33 | Activity [31]: 13 | Activity [32]: 12.67 | Activity [33]: 13.67 | Activity [34]: 19.67 | Activity [35]: 15.67 | Activity [36]: 15
